Where two headings read alike, the source gives them in different places.
Assays:
rice α-glucosidase = target: T1, rice α-glucosidase (Oryza sativa subsp. japonica, UniProt Q653V7); test: Inhibition of rice α-glucosidase (disaccharide substrate, glucose colorimetry); type: biochemical; conditions: rice enzyme
T1 construct: purchased Sigma Chemical Co
Text: (§1) The α-glucosidases of rice and of yeast, as well as the β-glucosidases of sweet almond and Caldocellum saccharolyticum are obtained from Sigma Chemical Co. ‘Brush border’ membranes prepared from rat small intestine according to Kessler's method (Kessler, M.; Acuto, O.; Strelli, C.; Murer, H.; Semenza, G. A. Biochem. Biophys. Acta 1978, 506, 136) were used as a source of intestinal maltase, sucrase and isomaltase. The activities of rice α-glucosidase as well as of the intestinal glucosidases were determined using an appropriate disaccharide as substrate. The D-glucose thus released was assayed by colorimetry using the Wako glucose B-test (Wako Pure Chemical Ind., Japan). The activities on the other glycosidases were determined using the appropriate p-nitrophenyl glycoside as a substrate with the optimum pH of each enzyme. The reaction is stopped by adding 400 mM Na2CO3. The p-nitrophenol thus released was assayed by spectrophotometry at 400 nm. For the β-glucocerebrosidase, the technique used is that described in Kato, A.; Kato, N.; Kano, E.; Adachi, I.; Ikeda, K.; Yu, L.; Okamoto, T.; Banba, Y.; Ouchi, H.; Takahata, H.; Asano, N. Biological properties of D- and L-1-deoxyazasugars. J. Med. Chem. 2005, 48, 2036-2044.

β-glucocerebrosidase [1] = test: Intracellular β-glucocerebrosidase activity in type 1 Gaucher fibroblasts; type: cell-based, human; conditions: factor of residual β-glucocerebrosidase activity, 10 nM
[2] = target: T2, β-glucosidase Caldocellum saccharolyticum (Caldicellulosiruptor saccharolyticus, UniProt P10482); test: Inhibition of Caldocellum saccharolyticum β-glucosidase; type: biochemical
T2 construct: purchased Sigma Chemical Co
T2 sequence (P10482 whole entry): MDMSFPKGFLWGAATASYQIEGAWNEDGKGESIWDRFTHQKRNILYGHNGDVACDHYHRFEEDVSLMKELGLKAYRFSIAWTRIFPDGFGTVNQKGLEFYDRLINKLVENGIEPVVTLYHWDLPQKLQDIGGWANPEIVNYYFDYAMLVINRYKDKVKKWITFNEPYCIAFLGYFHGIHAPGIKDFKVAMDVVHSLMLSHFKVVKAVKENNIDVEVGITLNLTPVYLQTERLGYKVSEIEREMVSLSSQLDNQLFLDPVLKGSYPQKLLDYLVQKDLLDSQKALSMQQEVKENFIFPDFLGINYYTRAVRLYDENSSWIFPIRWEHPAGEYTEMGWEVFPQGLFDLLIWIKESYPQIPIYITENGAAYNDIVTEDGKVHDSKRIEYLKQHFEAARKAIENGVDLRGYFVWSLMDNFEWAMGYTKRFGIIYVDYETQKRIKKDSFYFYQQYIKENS
Text: as §1

α-Mannosidase = target: T3, α-Mannosidase (Homo sapiens, UniProt O00754); test: α-Mannosidase activity in Gaucher fibroblasts; type: cell-based
T3 construct: endogenous in cells; host or cells: fibroblasts of Gaucher patients (type 1, 2, 3)
T3 sequence (O00754 50-1011): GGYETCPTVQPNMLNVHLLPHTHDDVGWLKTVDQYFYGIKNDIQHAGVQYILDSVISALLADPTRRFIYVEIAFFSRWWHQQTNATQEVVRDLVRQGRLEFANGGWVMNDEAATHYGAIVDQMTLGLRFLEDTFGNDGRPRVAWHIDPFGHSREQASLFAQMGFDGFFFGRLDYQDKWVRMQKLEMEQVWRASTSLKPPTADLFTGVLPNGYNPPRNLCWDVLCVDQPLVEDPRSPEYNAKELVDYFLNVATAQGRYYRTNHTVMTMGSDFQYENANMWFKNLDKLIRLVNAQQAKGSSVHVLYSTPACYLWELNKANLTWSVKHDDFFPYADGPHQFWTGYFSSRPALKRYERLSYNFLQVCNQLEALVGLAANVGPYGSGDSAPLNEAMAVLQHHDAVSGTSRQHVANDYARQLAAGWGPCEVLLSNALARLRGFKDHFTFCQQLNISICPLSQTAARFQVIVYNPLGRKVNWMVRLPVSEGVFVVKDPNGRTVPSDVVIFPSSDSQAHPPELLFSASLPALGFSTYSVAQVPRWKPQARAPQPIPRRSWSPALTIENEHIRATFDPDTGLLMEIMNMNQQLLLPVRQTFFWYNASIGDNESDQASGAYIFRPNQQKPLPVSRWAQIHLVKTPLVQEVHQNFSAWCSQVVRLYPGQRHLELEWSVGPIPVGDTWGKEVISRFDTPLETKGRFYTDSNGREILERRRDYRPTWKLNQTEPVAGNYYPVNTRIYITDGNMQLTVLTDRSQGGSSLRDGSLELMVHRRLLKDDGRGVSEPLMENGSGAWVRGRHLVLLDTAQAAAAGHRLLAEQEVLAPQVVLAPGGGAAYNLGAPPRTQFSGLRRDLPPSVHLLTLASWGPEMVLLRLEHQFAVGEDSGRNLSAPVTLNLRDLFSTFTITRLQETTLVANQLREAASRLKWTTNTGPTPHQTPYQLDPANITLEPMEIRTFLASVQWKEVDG
Experimental: (§2) The tests were carried out under the conditions described in: Sawkar, A. R.; Cheng, W.-C.; Beutler, E.; Wong, C.-H.; Balch, W. E.; Kelly, J. W. Chemical chaperones increase the cellular activity of N370S beta-glucosidase: a therapeutic strategy for Gaucher's disease. Proc. Natl. Acad. Sci. U.S.A. 2002, 99, 15428-15433.

isomaltase = target: T4, isomaltase (Rattus norvegicus, UniProt P23739); test: Inhibition of rat intestinal isomaltase; type: biochemical; conditions: rat intestine; read-out: IC50 α-glucosidase isomaltase
T4 construct: from tissue; host or cells: rat small intestine brush border membranes
T4 sequence (P23739 1-1013 limits assumed): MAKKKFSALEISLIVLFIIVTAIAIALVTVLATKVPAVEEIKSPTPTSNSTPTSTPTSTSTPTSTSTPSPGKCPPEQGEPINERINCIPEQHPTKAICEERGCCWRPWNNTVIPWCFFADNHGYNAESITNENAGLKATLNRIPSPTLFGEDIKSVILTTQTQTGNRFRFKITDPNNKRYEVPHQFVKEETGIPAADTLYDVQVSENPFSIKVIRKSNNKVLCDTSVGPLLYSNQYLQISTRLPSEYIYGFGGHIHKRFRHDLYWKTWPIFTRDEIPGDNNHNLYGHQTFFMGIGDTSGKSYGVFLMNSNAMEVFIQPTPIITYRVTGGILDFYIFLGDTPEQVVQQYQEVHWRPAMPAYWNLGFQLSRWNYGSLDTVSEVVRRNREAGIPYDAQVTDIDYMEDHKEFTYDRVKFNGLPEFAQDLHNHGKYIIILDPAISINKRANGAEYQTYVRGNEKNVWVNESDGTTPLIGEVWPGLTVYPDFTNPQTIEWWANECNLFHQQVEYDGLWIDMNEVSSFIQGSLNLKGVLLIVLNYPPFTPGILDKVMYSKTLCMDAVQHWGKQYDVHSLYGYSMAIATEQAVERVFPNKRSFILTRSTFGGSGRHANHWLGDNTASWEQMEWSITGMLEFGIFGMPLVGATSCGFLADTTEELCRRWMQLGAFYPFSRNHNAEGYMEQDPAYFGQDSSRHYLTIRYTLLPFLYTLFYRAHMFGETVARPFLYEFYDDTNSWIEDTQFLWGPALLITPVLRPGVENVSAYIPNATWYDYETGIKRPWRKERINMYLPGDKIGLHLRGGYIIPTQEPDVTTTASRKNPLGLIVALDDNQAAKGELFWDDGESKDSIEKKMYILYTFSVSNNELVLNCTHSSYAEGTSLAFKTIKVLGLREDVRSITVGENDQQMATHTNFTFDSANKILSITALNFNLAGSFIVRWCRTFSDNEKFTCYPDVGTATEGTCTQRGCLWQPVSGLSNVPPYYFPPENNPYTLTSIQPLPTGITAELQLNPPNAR
T4 sequence (P23739 1014-1841 limits assumed): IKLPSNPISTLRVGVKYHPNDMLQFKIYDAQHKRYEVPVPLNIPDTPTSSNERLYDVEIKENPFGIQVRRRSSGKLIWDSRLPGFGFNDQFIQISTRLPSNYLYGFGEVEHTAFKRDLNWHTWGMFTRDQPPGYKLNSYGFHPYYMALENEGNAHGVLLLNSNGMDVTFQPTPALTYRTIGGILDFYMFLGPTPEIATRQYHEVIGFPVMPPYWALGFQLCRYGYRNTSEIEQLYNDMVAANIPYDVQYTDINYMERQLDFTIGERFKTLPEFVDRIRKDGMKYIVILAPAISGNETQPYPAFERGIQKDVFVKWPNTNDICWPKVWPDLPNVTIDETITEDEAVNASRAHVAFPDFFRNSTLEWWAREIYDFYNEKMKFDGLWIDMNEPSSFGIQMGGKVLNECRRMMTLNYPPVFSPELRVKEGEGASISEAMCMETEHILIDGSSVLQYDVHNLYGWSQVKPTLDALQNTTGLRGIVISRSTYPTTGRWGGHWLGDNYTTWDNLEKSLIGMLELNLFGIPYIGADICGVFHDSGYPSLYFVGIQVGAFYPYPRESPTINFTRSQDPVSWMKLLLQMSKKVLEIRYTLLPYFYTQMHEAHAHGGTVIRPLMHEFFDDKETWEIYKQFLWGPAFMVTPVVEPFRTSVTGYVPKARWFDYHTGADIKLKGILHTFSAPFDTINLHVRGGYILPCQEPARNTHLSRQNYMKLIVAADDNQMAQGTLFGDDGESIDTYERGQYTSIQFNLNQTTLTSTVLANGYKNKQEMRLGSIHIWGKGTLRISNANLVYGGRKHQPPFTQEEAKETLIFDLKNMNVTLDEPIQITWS
Text: as §1

α-Glucosidase = target: T5, α-Glucosidase (Homo sapiens, UniProt P10253); test: α-Glucosidase activity in Gaucher fibroblasts; type: cell-based
T5 construct: endogenous in cells; host or cells: fibroblasts of Gaucher patients (type 1, 2, 3)
Experimental: as §2

sucrase = target: T6, sucrase (Rattus norvegicus, UniProt P23739); test: Inhibition of rat intestinal sucrase; type: biochemical; conditions: rat intestine; read-out: IC50 α-glucosidase sucrase
T6 construct: from tissue; host or cells: rat small intestine brush border membranes
T6 sequence (P23739 1-1013 limits assumed): as the sequence (P23739 1-1013 limits assumed) above
T6 sequence (P23739 1014-1841 limits assumed): as the sequence (P23739 1014-1841 limits assumed) above
Text: as §1

[3] = target: T7, human β-glucocerebrosidase (Homo sapiens, UniProt P04062); test: Inhibition tests on human β-glucocerebrosidase; type: biochemical; conditions: for IC50: read-out: IC50 β-glucocérébrosidase
T7 sequence (P04062 40-536): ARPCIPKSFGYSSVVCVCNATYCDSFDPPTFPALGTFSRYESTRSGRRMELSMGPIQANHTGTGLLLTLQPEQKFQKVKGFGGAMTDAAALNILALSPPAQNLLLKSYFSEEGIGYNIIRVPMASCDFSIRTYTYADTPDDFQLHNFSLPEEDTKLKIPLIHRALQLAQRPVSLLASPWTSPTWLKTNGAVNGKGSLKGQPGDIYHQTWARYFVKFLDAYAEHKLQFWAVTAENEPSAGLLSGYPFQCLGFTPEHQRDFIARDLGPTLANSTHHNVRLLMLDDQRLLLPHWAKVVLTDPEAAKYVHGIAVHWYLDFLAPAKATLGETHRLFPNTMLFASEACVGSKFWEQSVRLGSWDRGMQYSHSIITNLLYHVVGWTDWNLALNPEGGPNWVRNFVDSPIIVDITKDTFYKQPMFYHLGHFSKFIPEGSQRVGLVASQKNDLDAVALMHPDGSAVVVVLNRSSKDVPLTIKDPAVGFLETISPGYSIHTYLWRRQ

α-glucosidases = test: Activity on the different α-glucosidases tested; type: biochemical
Text: as §1

[4] = test system: other lysosomal glycosidases; test: Effects on other lysosomal glycosidases in Gaucher fibroblasts; type: cell-based, human; conditions: for Effects on the activity of other glycosidases: Gaucher fibroblasts, Table 2
[5] = test system: human β-glucocerebrosidase; test: Intracellular β-glucocerebrosidase activity in fibroblasts of Gaucher patients (type 1, 2 or 3); type: cell-based; conditions: fibroblasts type 1, 2 or 3; very low quantities
maltase = test: Inhibition of rat intestinal maltase; type: biochemical; conditions: rat intestine; read-out: IC50 α-glucosidase maltase
Text: as §1

β-glucocerebrosidase [6] = test: Intracellular β-glucocerebrosidase activity in type 3 Gaucher fibroblasts; type: cell-based, human; conditions: factor of residual β-glucocerebrosidase activity, 10 nM
[7] = target: β-glucosidase sweet almond; test: Inhibition of sweet almond β-glucosidase; type: biochemical
Text: as §1

[8] = type 2 Gaucher fibroblasts, 50 μM

T1 sequence (Q653V7 34-885): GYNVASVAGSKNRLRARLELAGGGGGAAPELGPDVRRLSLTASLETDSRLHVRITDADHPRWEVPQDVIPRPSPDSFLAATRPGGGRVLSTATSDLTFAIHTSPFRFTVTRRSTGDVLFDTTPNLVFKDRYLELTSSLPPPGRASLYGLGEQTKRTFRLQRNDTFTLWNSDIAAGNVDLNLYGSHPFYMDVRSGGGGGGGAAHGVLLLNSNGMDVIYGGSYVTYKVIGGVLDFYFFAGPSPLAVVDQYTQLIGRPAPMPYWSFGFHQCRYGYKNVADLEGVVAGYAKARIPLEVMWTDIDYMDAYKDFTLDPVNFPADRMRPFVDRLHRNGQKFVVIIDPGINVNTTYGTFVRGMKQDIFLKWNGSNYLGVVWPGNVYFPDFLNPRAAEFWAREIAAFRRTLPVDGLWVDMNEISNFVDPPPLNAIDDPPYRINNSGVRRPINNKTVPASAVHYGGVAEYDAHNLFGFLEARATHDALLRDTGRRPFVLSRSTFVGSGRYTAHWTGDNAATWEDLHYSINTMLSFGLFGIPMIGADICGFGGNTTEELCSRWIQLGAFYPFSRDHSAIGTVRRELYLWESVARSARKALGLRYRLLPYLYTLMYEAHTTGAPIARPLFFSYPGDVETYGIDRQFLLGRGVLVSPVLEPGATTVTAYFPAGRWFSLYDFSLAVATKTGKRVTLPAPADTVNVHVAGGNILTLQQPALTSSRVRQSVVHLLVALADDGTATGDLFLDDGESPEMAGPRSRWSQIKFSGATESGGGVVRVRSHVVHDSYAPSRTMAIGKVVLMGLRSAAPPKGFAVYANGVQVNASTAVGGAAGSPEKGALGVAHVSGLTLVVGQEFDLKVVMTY

CCCCCCCCC[C@H]1NC[C@@H](O)[C@H](O)[C@H]1O [Compound 1′a, α-1-C-nonyliminoxylitol]
IC50 (rice α-glucosidase): > 1000 µM
Increase in the enzymatic activity (type 1 fibroblasts) (β-glucocerebrosidase [1]): 1.8
Increase in the enzymatic activity (type 1 fibroblasts) (β-glucocerebrosidase [1]; listed as drawing 105): ×1.8 to 10 nM
IC50 [2]: 800 µM
α-Mannosidase inhibition (α-Mannosidase; type 1-3 Gaucher fibroblasts): no inhibition
IC50 (isomaltase): > 1000 µM
α-Glucosidases inhibition (α-Glucosidase; type 1-3 Gaucher fibroblasts): no inhibition
IC50 (sucrase): > 1000 µM
IC50 ([3]; human enzyme): 0.0068 µM
times more active than N-nonyl-1-deoxynojirimycin 2′ ([3]; human β-glucocerebrosidase): 150 times
Ki ([3]; read-out: inhibition constant (Ki) human β-glucocerebrosidase): 0.002 µM
activity on the different α-glucosidases tested (α-glucosidases): no activity
action on other lysosomal glycosidases ([4]; 10 nM): without inhibiting the action of other lysosomal glycosidases
Effects on the activity of other glycosidases [4]: No effect
residual enzymatic activity of human β-glucocerebrosidase [5]: double
IC50 (maltase): > 1000 µM
Increase in the enzymatic activity (type 3 fibroblasts) (β-glucocerebrosidase [6]): 1.9
Increase in the enzymatic activity (type 3 fibroblasts) (β-glucocerebrosidase [6]; listed as drawing 105): ×1.9 to 10 nM
IC50 [7]: 1.9 µM

CCCCCCCCCCCC[C@H]1NC[C@@H](O)[C@H](O)[C@H]1O [Compound 1′b]
Ki ([3]; human enzyme, Table 1, read-out: value of Ki β-glucocérébrosidase (in brackets)): 0.031 µM
IC50 ([3]; human enzyme): 0.012 µM

CCCCCCCCCN1C[C@H](O)[C@@H](O)[C@H](O)[C@H]1CO [2′, N-nonyl-1-deoxynojirimycin, reference compound]
IC50 (rice α-glucosidase): 0.08 µM
IC50 [2]: 80 µM
α-Mannosidase inhibition (α-Mannosidase; type 1 Gaucher fibroblasts): slight inhibition
α-Mannosidase inhibition (α-Mannosidase; [8]): slight inhibition
α-Mannosidase inhibition (α-Mannosidase; type 3 Gaucher fibroblasts): no inhibition
IC50 (isomaltase): 0.23 µM
inhibition at 50 µM (α-Glucosidase; type 1 Gaucher fibroblasts, 50 μM): 70%
α-Glucosidase inhibition (α-Glucosidase; [8]): significant inhibition
α-Glucosidase inhibition (α-Glucosidase; type 3 Gaucher fibroblasts): significant inhibition
IC50 (sucrase): 0.66 µM
Effects on the activity of other glycosidases [4]: Marked effects
IC50 (maltase): 1.3 µM
IC50 [7]: 150 µM
